According to patent publication US5843885A, “ICAM-1/LFA-1 short-chain peptides and method of using same” (The University of Kansas, priority 1997, dated 1998):
Where no end group is shown, it is not given here.

Key:
ICAM-1 on Molt3 cells = target: T1, ICAM-1 on Molt3 cells (Homo sapiens, UniProt P05362); assay: Conformation modulator assay: binding of FITC-labeled RB-1-88 peptide to T-cells (FACS); details: first peptide 4550 μM, then FITC-labeled RB-1-88 1.90 μM
T1 construct: host or cells: Molt3 human T-cell line
T1 sequence (P05362 28-532): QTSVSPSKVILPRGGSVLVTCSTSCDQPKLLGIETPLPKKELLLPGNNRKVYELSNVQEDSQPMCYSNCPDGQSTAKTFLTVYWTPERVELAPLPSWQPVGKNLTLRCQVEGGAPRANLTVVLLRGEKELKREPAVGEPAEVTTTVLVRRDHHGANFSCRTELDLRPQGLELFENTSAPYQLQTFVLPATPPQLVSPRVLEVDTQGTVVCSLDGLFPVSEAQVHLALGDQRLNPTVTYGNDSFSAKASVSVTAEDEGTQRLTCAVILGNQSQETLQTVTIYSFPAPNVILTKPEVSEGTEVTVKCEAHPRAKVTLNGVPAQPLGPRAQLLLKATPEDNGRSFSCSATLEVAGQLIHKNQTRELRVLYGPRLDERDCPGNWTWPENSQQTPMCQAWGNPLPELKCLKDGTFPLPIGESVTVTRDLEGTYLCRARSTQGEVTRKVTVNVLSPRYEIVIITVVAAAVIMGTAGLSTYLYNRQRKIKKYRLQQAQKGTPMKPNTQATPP
Procedure: The antibody binding assay of Example 2 was twice repeated at a peptide concentration of 4550 μM, each time substituting a 455 nmol quantity of synthetic peptide selected from the group consisting of ICAM-based peptide SC-3-111 (Sequence ID No. 10) and LFA-based peptide LJCRF-4 (Sequence ID No. 16) in respective assays. Following incubation for 30 minutes at 37° C. after introduction of the first peptides, both incubated culture were supplemented by an additional quantity of FITC-labeled RB-1-88 (Sequence ID No. 19) peptide in a quantity sufficient to provide a 1.90 μM concentration in the cell/PBS solution.
Following addition of the RB-1-88 (Sequence ID No. 19) peptide, the mixture was incubated for 30 minutes at 4° C., washed three times with 500 μl PBS/BSA, resuspended in 500 μl PBS/BSA and immediately subjected to a flow cytometer analysis as before. Table 3 presents the results of this analysis, which are also depicted in FIGS. 8 (SC-3-111) and 9 (LJCRF-4).

Molt3 cells = assay: Cell metabolic assay (MTT); format: cell-based, human
Procedure: After taking the photographs in Example 3 (and in some instances no photographs were taken), cell metabolic activity was assessed by an MTT assay. A 37.5 μl portion of MTT dye (purchased from SIGMA of St. Louis, Mo.), i.e., 3-[4,5-dimethyl thiazole-2yl]-2, 5-diphenyl tetrazolium bromide; thiazolyl blue) was added to each well, and incubated with the cells at 37° C. for about six hours. After incubation, a 250 μl quantity of a MTT solubilization solution (of a type that may be purchased from either Fischer Scientific of St. Louis, Mo. or BCD Labs of Lawrence, Kans.) was added to each well, and incubated with the cells at room temperature overnight. In the morning, the spectrophotometric absorption of each plate was determined at 570 nm in a microplate ELISA reader manufactured by Cambridge Technologies of Watertown, Mass., in order to assess cell viability as an indicator of potential peptide toxicity.

[1] = target: T2, ICAM-1 (CD54) on Molt3 cells (Homo sapiens, UniProt P05362); assay: Antibody binding assay (FACS): anti-CD54 mAb binding to Molt3 T-cells; details: for Fluorescence, % change from control of the medium fluorescence intensity: mAb CD54
T2 construct: host or cells: Molt3 human T-cell line
T2 sequence (P05362 28-532): as above

[2] = target: T3, LFA-1 (CD11a) on Molt3 cells (Homo sapiens, UniProt P20701); assay: Antibody binding assay (FACS): anti-CD11a mAb binding to Molt3 T-cells; details: for Fluorescence, % change from control of the medium fluorescence intensity: mAb CD11a, average ± standard error; for blocking efficiency: single run (FIGS. 2 and 3)
T3 construct: host or cells: Molt3 human T-cell line
T3 sequence (P20701 26-1170): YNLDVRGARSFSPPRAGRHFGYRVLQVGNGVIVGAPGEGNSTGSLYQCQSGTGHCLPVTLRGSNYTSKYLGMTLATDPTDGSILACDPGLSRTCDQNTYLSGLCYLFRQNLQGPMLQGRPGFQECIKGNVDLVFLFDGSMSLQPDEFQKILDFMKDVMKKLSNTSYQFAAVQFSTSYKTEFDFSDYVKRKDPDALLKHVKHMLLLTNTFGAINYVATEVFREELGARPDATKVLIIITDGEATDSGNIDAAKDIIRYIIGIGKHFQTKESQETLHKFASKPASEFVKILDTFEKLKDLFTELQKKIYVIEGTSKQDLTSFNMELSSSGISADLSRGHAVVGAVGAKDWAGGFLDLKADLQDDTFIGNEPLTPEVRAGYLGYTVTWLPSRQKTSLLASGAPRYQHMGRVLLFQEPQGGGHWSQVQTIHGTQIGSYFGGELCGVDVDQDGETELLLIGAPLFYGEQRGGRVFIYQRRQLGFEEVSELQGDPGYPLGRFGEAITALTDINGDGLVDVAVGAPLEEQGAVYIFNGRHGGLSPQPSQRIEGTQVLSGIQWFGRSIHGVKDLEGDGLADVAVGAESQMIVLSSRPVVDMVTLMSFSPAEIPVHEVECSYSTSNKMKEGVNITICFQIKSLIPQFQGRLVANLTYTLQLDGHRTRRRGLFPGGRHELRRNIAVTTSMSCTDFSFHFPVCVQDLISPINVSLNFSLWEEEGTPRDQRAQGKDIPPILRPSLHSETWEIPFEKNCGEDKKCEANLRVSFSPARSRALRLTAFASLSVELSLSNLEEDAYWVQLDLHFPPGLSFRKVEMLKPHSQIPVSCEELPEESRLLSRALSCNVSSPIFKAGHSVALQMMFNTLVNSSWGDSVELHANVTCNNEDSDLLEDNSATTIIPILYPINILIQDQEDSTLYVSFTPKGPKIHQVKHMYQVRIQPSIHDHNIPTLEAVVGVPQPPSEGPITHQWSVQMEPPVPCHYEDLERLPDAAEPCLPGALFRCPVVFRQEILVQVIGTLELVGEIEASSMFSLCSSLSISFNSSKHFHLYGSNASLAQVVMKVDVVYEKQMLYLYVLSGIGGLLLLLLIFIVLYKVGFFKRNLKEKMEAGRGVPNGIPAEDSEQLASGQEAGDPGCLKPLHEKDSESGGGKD
T3 sequence (P05107 23-769 partner): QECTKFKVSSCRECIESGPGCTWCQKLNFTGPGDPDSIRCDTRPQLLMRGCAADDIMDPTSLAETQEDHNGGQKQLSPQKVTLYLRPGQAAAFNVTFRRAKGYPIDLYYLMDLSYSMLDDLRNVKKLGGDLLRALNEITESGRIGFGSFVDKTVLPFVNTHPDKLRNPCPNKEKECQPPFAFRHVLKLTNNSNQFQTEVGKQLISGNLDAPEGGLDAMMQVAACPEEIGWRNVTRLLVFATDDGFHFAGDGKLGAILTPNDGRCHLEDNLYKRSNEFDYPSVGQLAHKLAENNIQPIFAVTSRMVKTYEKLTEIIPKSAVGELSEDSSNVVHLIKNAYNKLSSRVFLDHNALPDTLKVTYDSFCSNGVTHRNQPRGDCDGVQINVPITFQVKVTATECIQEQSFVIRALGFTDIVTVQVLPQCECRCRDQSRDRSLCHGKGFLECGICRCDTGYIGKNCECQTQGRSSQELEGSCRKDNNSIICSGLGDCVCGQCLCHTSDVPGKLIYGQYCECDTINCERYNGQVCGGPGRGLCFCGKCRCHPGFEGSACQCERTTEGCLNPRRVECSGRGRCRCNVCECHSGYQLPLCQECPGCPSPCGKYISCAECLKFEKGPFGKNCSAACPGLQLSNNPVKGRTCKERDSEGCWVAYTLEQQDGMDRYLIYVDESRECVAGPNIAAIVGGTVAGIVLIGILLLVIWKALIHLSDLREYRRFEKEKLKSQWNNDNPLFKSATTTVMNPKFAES
Procedure: A 1 ml quantity of the Molt3 inoculum was warmed to 37° C. and transferred by pipette into about 25 ml of a growth culture medium including RPMI 1640 lymphocyte growth medium (Fisher Scientific of St. Louis, Mo.) mixed with 10% by volume fetal calf serum, 100 units/ml penicillin, 100 μg/ml streptomycin and 2 mM glutamine. The inoculated culture was incubated for three to four days at 37° C. under a normal atmosphere having about 5% CO2 added thereto. This culture was capable of being maintained indefinitely by siphoning away the top (non-cell containing) layer and adding 50 ml (or more) of growth culture medium at intervals of three to four days.
An aqueous buffer solution including Dulbecco's phosphate buffered saline and bovine serum albumin ("PBS/BSA solution") was prepared for use, and included a mixture of 200 mg KH2 PO4, 1.15 g Na2 HPO4, 100 mg CaCl2, 200 mg KC1, 100 mg MgCl2.6H2 O, 8 g NaCl, with distilled water added to a final 1 liter volume at room temperature, thus, forming a "PBS" solution of pH 7.4 to which was added 0.5% by weight bovine serum albumin.
An aliquot of about 7 ml was removed from the incubated culture medium and subjected to washing with the PBS/BSA solution. The washing procedure was initiated by placing the aliquot in a centrifuge (Model GT422 from Jouan, distributed Piruscio & Assoc. of Manchester, Mo.) at 1400 rpm for 6.5 minutes to separate the cells from the growth medium. The supernatant fluid was decanted, a 5 ml portion of PBS/BSA solution was transferred by pipette into the pellet, and the mixture was again centrifuged as before. The resulting supernatant fluid was decanted and the cells from the pellet were resuspended in PBS/BSA solution at a titer of about 1×10^6 cells/ml. A 500 μl portion of the solution containing the resuspended cells was placed in a microcentrifuge (Marathon 13K/M from Fisher Scientific of St. Louis, Mo.) at 3500 rpm for six minutes, to provide a washed pellet.
[…] The cells were incubated with the peptide cocktail at 37° C. for 45 minutes.
After incubation with the peptide cocktail, several antibodies were successively mixed into the incubated solution. A 75 μl portion of anti-IgM solution (a mixture of 10 μl of goat anti-human IgM stock purchased from Jackson Immuno Research of Westgrove, Pa; and 65 μl of PBS/BSA solution) was added to the peptide cocktail for blocking of nonspecific binding of the secondary antibody. The resulting mixture was incubated for 10 minutes on ice. About 0.1 μg of a primary antibody including mouse IgG anti-human CD11a (purified according to conventional protocols at the University of Kansas Department of Pharmacology and Toxicology from an American Type Culture hybridoma cell line having Catalogue Number HB-202) was next stirred into the mixture, which was then incubated for 30 minutes at room temperature. The incubated mixture was placed in a microcentrifuge at 3500 rpm for six minutes to remove the cells from the mixture, and the cell pellet was washed two times by adding 500 μl aliquots of PBS/BSA solution and microfuging to remove non-bound antibodies from the cells as before. The resulting washed pellet was resuspended in 100 μl of a secondary antibody cocktail including 5 μl of fluorescein isothiocyanate ("FITC") labeled goat anti-mouse IgG (from CALTAG of South San Francisco, Calif.) and 95 μl of PBS/BSA solution. The resulting solution was incubated for 30 minutes at room temperature in the dark.
The incubated solution including the secondary antibody cocktail was microfuged at 3500 rpm for six minutes to remove the cells from the solution, and the cell pellet was washed two times with 500 μl portions of PBS/BSA solution, as before, to remove unbound antibodies. […]

[3] = target: Leucocyte Function Associated antigen-1 (LFA-1), on Molt3 human T-cells (human); assay: flow cytometry on Molt3 T-cells; control without peptide; FITC goat anti-mouse IgG secondary
[4] = target: Leucocyte Function Associated antigen-1 (LFA-1), on Molt3 human T-cells (human); assay: flow cytometry on Molt3 T-cells preincubated with SC-3-111 (run of FIG. 2); FITC goat anti-mouse IgG secondary
[5] = target: Leucocyte Function Associated antigen-1 (LFA-1), on Molt3 human T-cells (human); assay: flow cytometry on Molt3 T-cells; peptide 4550 µM; probe antibody mouse IgG anti-human CD11a; average of 2 runs
[6] = peptide 4550 μM, average ± standard error

Molecule | MTT % Viability (Molt3 cells; 230 μM) [%] | MTT % Viability (Molt3 cells; 460 μM) [%] | MTT % Viability (Molt3 cells; 910 μM) [%] | MTT % Viability (Molt3 cells; 1820 μM) [%] | Fluorescence, % change from control of the medium fluorescence intensity ([2]; peptide 2275 μM) | Fluorescence, % change from control of the medium fluorescence intensity ([2]; peptide 4550 μM) [%] | also measured
DLSYSLDDLRNVKKLGGDLLRALNE [LJCRF-4] | 101 | 94 | 60 | 11 | – | – | FACS Analysis (RB-1-88 binding), shift from control (ICAM-1 on Molt3 cells): +145%; MTT % Viability (Molt3 cells; 115 μM): 99%; MTT % Viability (Molt3 cells; 115 μM, listed as SC-3-223): 103%; MTT % Viability (Molt3 cells; 230 μM, listed as SC-3-223): 109%; MTT % Viability (Molt3 cells; 460 μM, listed as SC-3-223): 112%; MTT % Viability (Molt3 cells; 910 μM, listed as SC-3-223): 108%; MTT % Viability (Molt3 cells; 1820 μM, listed as SC-3-223): 75%; Fluorescence, % change from control of the medium fluorescence intensity ([1]; peptide 2275 μM, average ± standard error): +3 ± 1%; Fluorescence, % change from control of the medium fluorescence intensity ([1]; peptide 6825 μM): +521%; curve shift / median peak enhancement ([1]; single run (FIG. 4), 4550 μM, anti-ICAM-1 mAb): +447%
DQPKLLGIETPLPKKELLLPGNNRK [LJCRF-2] | 38 | 38 | 38 | 43 | +48 ± 8% | -43 ± 7 | MTT % Viability (Molt3 cells; concentration not given): 38%
GVDVDQDGETELIGAPLFYGEQRG [LJCRF-5] | 84 | 81 | 52 | 20 | – | – | MTT % Viability (Molt3 cells; 115 μM): 95%; metabolic activity in MTT assay (Molt3 cells; 1820 μM): decrease in metabolic activity; Fluorescence, % change from control of the medium fluorescence intensity [1, 6]: -17%
ITDGEATDSGNIDAAKDIIYIIGI [LJCRF-6] | – | – | – | – | – | – | Fluorescence, % change from control of the medium fluorescence intensity [1, 6]: -4%
KELLLPGNNRKVYELSNVQEDSQP [LJCRF-3] | – | – | – | – | – | -13 ± 19 | –
LPRGGSVLVTG [MC-1-80] | – | – | – | – | – | – | metabolic activity in MTT assay (Molt3 cells; 910 μM): cellular respiration was enhanced
QTSVSPSKVI [SC-3-111] | 93 | 95 | 89 | 69 | -12 ± 4% | -29 ± 2 | MTT % Viability (Molt3 cells; concentration not given): 85%; % change of median peak from control ([2]; single run (FIG. 2), 4550 μM, anti-CD11a): -51%; blocking efficiency ([2]; 4550 μM, anti-CD11a): 51%
QTSVSPSKVILPRGGSVLVTG [LJCRF-1] | – | 93 | 92 | 66 | -12 ± 2% | -29 ± 3 | blocking efficiency ([2]; 4550 μM, anti-CD11a): 65%
mouse IgG anti-human CD11a (from American Type Culture hybridoma cell line HB-202) (antibody) | – | – | – | – | – | – | median peak fluorescence intensity (fluorescence intensity) [3]: 264; median peak fluorescence intensity (fluorescence intensity) [4]: 129
KELLLPGNNRKVYELSNVQEDSQP [LJCRF-3] | – | – | – | – | – | – | % change from control of the median fluorescence intensity (% change from control) [5]: -13
